{"source": "patent US11529324B2", "about": "“Use of Kv11.1 channel inhibitors for treatment of pulmonary hypertension” (Georgetown University, priority 2019, dated 2022)", "key": {"PAH-induced SD rats [1]": {"test_system": "PAH-induced SD rats", "experiment": "Dofetilide treatment of SU5416/hypoxia PAH-induced and healthy SD rats, H&E lung histology and morphometric analysis (Example 5)", "assay_type": "in vivo, rat", "method": "(§1) Male SD and Fischer rats were purchased from Charles River Laboratories International, Inc., (Wilmington, Mass., USA). To induce PAH, rats were subcutaneously injected with 20 mg/kg body weight SU5416 (inhibitor of vascular endothelial growth factor (VEGF) receptor Flk/1-KDR; MedChemExpress, Monmouth Junction, N.J., USA) and maintained in hypoxia^28-30. For hypoxia, animals were placed in a chamber (30″ w×20″ d×20″ h) regulated by an OxyCycler Oxygen Profile Controller (Model A84XOV; BioSpherix, Redfield, N.Y., USA) set to maintain 10% O2 with an influx of N2 gas, located in the animal care facility at the Georgetown University Medical Center. […] Animals were fed normal rat chow.\nIn a first experiment to determine the effects of a Kv11.1 inhibitor (dofetilide), SD rats were divided into 4 groups that were treated with (1) DMSO, (2) dofetilide, (3) DMSO+SU5416/Hypoxia, and (4) dofetilide+SU5416/Hypoxia, respectively (n=4 for each group). Dofetilide (10 mg/kg body weight) was dissolved in DMSO and injected intraperitoneally before the injection of SU5416. For histological examination, lung tissues were fixed in 10% formalin and embedded in paraffin. The Georgetown University Animal Care and Use Committee approved all animal experiments, and the investigation conformed to the National Institutes of Health Guide for the Care and Use of Laboratory Animals.\nParaffin-embedded tissues were cut and mounted on glass slides. Tissue sections were subjected to hematoxylin and eosin (H&E) stain and immunohistochemistry using anti-smooth muscle actin (anti-SMA) antibody (Abcam, Cambridge, UK) and Kv11.1 antibody (Alomone Labs, Jerusalem, Israel).\nLung slides were analyzed for pulmonary artery wall thickness. 30 vessels were analyzed per animal in each group, and four values of external and internal diameters for thickness were measured for each vessel. The wall thickness was calculated as difference of external and internal diameters by using Fiji software.\nMeans±SEM were calculated and then comparisons between two groups were analyzed using a two-tailed Student's t test, while comparisons between three or more groups were analyzed using ANOVA with a Student-Newman-Keuls post-hoc test. P<0.05 was considered to be significant.\nTo determine if pharmacological inhibition of Kv11.1 channels would affect PAH progression, healthy and PAH-induced SD rats were treated with Kv11.1 channel-specific blocker dofetilide. Lung tissues from four groups of SD rats (four rats in each group) were examined with H&E staining. […] PAH-induced rats in group (3) had increased intimal endothelial cell proliferation, increased SPAMWT, and reduced pulmonary arterial lumen diameter compared to control rats (FIGS. 6A and 6B)."}, "PAH-induced SD rats [2]": {"test_system": "PAH-induced SD rats", "experiment": "Lower doses of dofetilide in SU5416/hypoxia PAH-induced and healthy SD rats, H&E lung histology (Example 6)", "assay_type": "in vivo, rat", "method": "as §1\n(§2) In a second experiment to determine the effects of dofetilide, SD rats are divided into 4 groups that are treated with (1) DMSO, (2) dofetilide, (3) DMSO+SU5416/Hypoxia, and (4) dofetilide+SU5416/Hypoxia, respectively (n=4 for each group). Dofetilide (1000 μg/kg body weight) is dissolved in DMSO and injected intraperitoneally before the injection of SU5416. For histological examination, lung tissues are fixed in 10% formalin and embedded in paraffin.\nas §2, with “third” for “second”, “(100” for “(1000”\nas §2, with “fourth” for “second”, “(10” for “(1000”\nTo examine further if pharmacological inhibition of Kv11.1 channels would affect PAH progression, healthy and PAH-induced SD rats are treated with Kv11.1 channel-specific blocker dofetilide using lower doses (1 mg/kg, 0.1 mg/kg, 0.01 mg/kg, or 0.001 mg/kg) than was used in Example 5. Lung tissues from four groups of SD rats (four rats in each group) are examined with H&E staining. […] PAH-induced rats in Group (3) have increased intimal endothelial cell proliferation, increased SPAMWT, and reduced pulmonary arterial lumen diameter compared to control rats."}, "[3]": {"settings": "PAH-induced (SU5416/hypoxia) SD rats, dofetilide 10 mg/kg i.p. before SU5416, group (4) compared with PAH-induced group (3)"}, "[4]": {"settings": "PAH-induced SD rats, dofetilide lower doses (1, 0.1, 0.01 or 0.001 mg/kg) i.p., Group (4) compared with Group (3)"}}}
{"smiles": "CN(CCOc1ccc(NS(C)(=O)=O)cc1)CCc1ccc(NS(C)(=O)=O)cc1", "note": "[dofetilide]", "values": [{"measurement": "pulmonary arterial lumen diameter", "setting": "PAH-induced SD rats [1]; [3]", "result": "increased"}, {"measurement": "small pulmonary arterial media wall thickness (SPAMWT)", "setting": "PAH-induced SD rats [1]; [3]", "result": "reduced"}, {"measurement": "PAH-induced changes in SPAMWT", "setting": "PAH-induced SD rats [1]; dofetilide 10 mg/kg i.p., SPAMWT of PAH-induced dofetilide-treated group (4) statistically similar to control group (2)", "result": "completely eliminated"}, {"measurement": "small pulmonary arterial media wall thickness (SPAMWT) in control rats", "setting": "PAH-induced SD rats [1]; healthy SD rats, dofetilide 10 mg/kg i.p. group (2) versus DMSO group (1), data not shown", "result": "no statistical differences"}, {"measurement": "pulmonary arterial lumen diameter", "setting": "PAH-induced SD rats [2]; [4]", "result": "increased"}, {"measurement": "small pulmonary arterial media wall thickness (SPAMWT)", "setting": "PAH-induced SD rats [2]; [4]", "result": "reduced"}, {"measurement": "PAH-induced changes in SPAMWT", "setting": "PAH-induced SD rats [2]; dofetilide lower doses (1, 0.1, 0.01 or 0.001 mg/kg), SPAMWT of Group (4) statistically similar to control Group (2)", "result": "completely eliminates"}, {"measurement": "small pulmonary arterial media wall thickness (SPAMWT) in control rats", "setting": "PAH-induced SD rats [2]; healthy SD rats, dofetilide lower doses Group (2) versus DMSO Group (1)", "result": "no statistical differences"}]}
